From PubChem BioAssay AID248 (DTP/NCI, 2004)
Several values for one entry are separate records, joined by “and”; a condition that tells them apart may be missing. Equal values may be shown once. Inconclusive results and toxic doses are left out. No stated cut-off is given here; in the data, active means T/C of 150% or more; inactive means T/C below 125%.

Tested on: L1210 leukemia ip in BDF1 mice, survival T/C
Experiment: NCI In Vivo Anticancer Drug Screen. Data for tumor model L1210 Leukemia (intraperitoneal) in B6D2F1 (BDF1) mice
Settings: endpoint: mean survival time, higher = longer survival
Method in brief: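 Ratio derived from survival: compound-dosed mice over vehicle-dosed mice, all bearing a transplantable tumor.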

[1] = dose: 100.0 mg/kg/injection, schedule: Q04DX003 (ip), vehicle: Klucel (hydroxypropylcellulose) (HPC)
[2] = dose: 200.0 mg/kg/injection, schedule: Q04DX003 (ip), vehicle: Klucel (hydroxypropylcellulose) (HPC)
[3] = dose: 400.0 mg/kg/injection, schedule: Q04DX003 (ip), vehicle: Klucel (hydroxypropylcellulose) (HPC)
[4] = dose: 100.0 mg/kg/injection, schedule: Q01DX009 (ip), vehicle: saline with Tween-80
[5] = dose: 100.0 mg/kg/injection, schedule: Q04DX003 (ip), vehicle: saline with Tween-80
[6] = dose: 200.0 mg/kg/injection, schedule: Q01DX009 (ip), vehicle: saline with Tween-80
[7] = dose: 200.0 mg/kg/injection, schedule: Q04DX003 (ip), vehicle: saline with Tween-80
[8] = dose: 400.0 mg/kg/injection, schedule: Q01DX009 (ip), vehicle: saline with Tween-80
[9] = dose: 400.0 mg/kg/injection, schedule: Q04DX003 (ip), vehicle: saline with Tween-80
[10] = dose: 100.0 mg/kg/injection, schedule: Q01DX009 (ip), vehicle: Klucel (hydroxypropylcellulose) (HPC)
[11] = dose: 200.0 mg/kg/injection, schedule: Q01DX009 (ip), vehicle: Klucel (hydroxypropylcellulose) (HPC)
[12] = dose: 100.0 mg/kg/injection, schedule: Q04DX002 (ip), vehicle: Klucel (hydroxypropylcellulose) (HPC)
[13] = dose: 200.0 mg/kg/injection, schedule: Q04DX002 (ip), vehicle: Klucel (hydroxypropylcellulose) (HPC)
[14] = dose: 100.0 mg/kg/injection, schedule: Q01DX001 (ip), vehicle: saline
[15] = dose: 200.0 mg/kg/injection, schedule: Q01DX001 (ip), vehicle: saline
[16] = dose: 400.0 mg/kg/injection, schedule: Q01DX001 (ip), vehicle: saline
[17] = dose: 100.0 mg/kg/injection, schedule: Q04DX002 (ip), vehicle: saline with Tween-80
[18] = dose: 200.0 mg/kg/injection, schedule: Q04DX002 (ip), vehicle: saline with Tween-80
[19] = dose: 400.0 mg/kg/injection, schedule: Q04DX002 (ip), vehicle: saline with Tween-80
[20] = dose: 50.0 mg/kg/injection, schedule: Q01DX009 (ip), vehicle: saline
[21] = dose: 100.0 mg/kg/injection, schedule: Q04DX003 (ip), vehicle: saline
[22] = dose: 200.0 mg/kg/injection, schedule: Q04DX003 (ip), vehicle: saline

Measured: T/C

Cc1c(Cl)c(C)c(Cl)c(CCl)c1Cl
inactive: dose: 100.0 mg/kg/injection, schedule: Q01DX009 (ip), vehicle: saline sonified 100 % of control | [1] 97 % of control | dose: 200.0 mg/kg/injection, schedule: Q01DX009 (ip), vehicle: saline sonified 95 % of control | [2] 89 % of control | dose: 400.0 mg/kg/injection, schedule: Q01DX009 (ip), vehicle: saline sonified 91 % of control | [3] 92 % of control

CCOC(=O)CCN(Cc1ccccc1)CC(C)C(=O)OC (configuration not stated)
inactive: [4] 102 % of control | [5] 104 % of control | [6] 97 % of control | [7] 91 % of control | [8] 95 % of control | [9] 96 % of control

CC(C)C(=O)Nc1ccc(S(=O)(=O)NCCO)cc1
inactive: [5] 97 % of control | [7] 92 % of control | [9] 92 % of control

O=[N+]([O-])c1ccc(C=Nc2cccc(C(F)(F)F)c2)cc1
inactive: [10] 90 % of control | [1] 90 % of control | [11] 98 % of control | [2] 95 % of control | [3] 93 % of control

c1ccc(C2=NNc3cccc[n+]3C2)cc1
inactive: dose: 75.0 mg/kg/injection, schedule: Q01DX001 (ip), vehicle: other 101 % of control

CC(=O)NN(N=O)C(C)c1ccccc1 (configuration not stated)
inactive: [12] 108 % of control | [13] 105 % of control

COC1C(O)C(CO)OC1n1cc(F)c(=O)[nH]c1=O (configuration not stated)
inactive: [14] 107 % of control | [15] 104 % of control | [16] 111 % of control

C[C@]12CCC(=O)C=C1CC[C@@H]1[C@@H]2C(=O)C[C@@]2(C)[C@H]1CC[C@]2(O)C(=O)COP(=O)(Nc1ccccc1)Nc1ccccc1
inactive: dose: 50.0 mg/kg/injection, schedule: Q01DX001 (sc), vehicle: steriod suspending solution 102 % of control | dose: 100.0 mg/kg/injection, schedule: Q01DX001 (sc), vehicle: steriod suspending solution 98 % of control | dose: 200.0 mg/kg/injection, schedule: Q01DX001 (sc), vehicle: steriod suspending solution 102 % of control | dose: 400.0 mg/kg/injection, schedule: Q01DX001 (sc), vehicle: steriod suspending solution 98 % of control

CC(COS(C)(=O)=O)(COS(C)(=O)=O)Cc1ccccc1
inactive: [10] 103 % of control | [11] 95 % of control | dose: 400.0 mg/kg/injection, schedule: Q01DX009 (ip), vehicle: Klucel (hydroxypropylcellulose) (HPC) 93 % of control

CCCCCCCC/C=C\CCCCCCCC(=O)OCC#CCOC(=O)CCCCCCC/C=C/CCCCCCCC
inactive: dose: 100.0 mg/kg/injection, schedule: Q01DX001 (ip), vehicle: saline with Tween-80 94 % of control | [4] 95 % of control and 101 % of control | [17] 97 % of control and 102 % of control | dose: 200.0 mg/kg/injection, schedule: Q01DX001 (ip), vehicle: saline with Tween-80 91 % of control | [6] 93 % of control and 94 % of control | [18] 97 % of control and 104 % of control | dose: 400.0 mg/kg/injection, schedule: Q01DX001 (ip), vehicle: saline with Tween-80 94 % of control | [8] 95 % of control and 97 % of control | [19] 96 % of control and 108 % of control

Cc1ccc2scc3c4ccccc4nc-3c2c1
inactive: dose: 25.0 mg/kg/injection, schedule: Q01DX009 (ip), vehicle: saline 95 % of control | [20] 95 % of control

CC(O)(C(N)=O)c1cc(Cl)ccc1Cl (configuration not stated)
inactive: dose: 100.0 mg/kg/injection, schedule: Q01DX009 (ip), vehicle: water 94 % of control | dose: 100.0 mg/kg/injection, schedule: Q04DX003 (ip), vehicle: water 90 % of control | dose: 200.0 mg/kg/injection, schedule: Q01DX009 (ip), vehicle: water 96 % of control | dose: 200.0 mg/kg/injection, schedule: Q04DX003 (ip), vehicle: water 95 % of control | dose: 400.0 mg/kg/injection, schedule: Q01DX009 (ip), vehicle: water 107 % of control | dose: 400.0 mg/kg/injection, schedule: Q04DX003 (ip), vehicle: water 96 % of control

Cn1c(=O)cc(C=Nc2ccc(C(=O)O)cc2)c2ccccc21
inactive: [14] 100 % of control | [15] 96 % of control | [16] 100 % of control

COc1cccc[n+]1[O-]
inactive: [20] 94 % of control | dose: 100.0 mg/kg/injection, schedule: Q01DX009 (ip), vehicle: saline 101 % of control | [21] 96 % of control | dose: 200.0 mg/kg/injection, schedule: Q01DX009 (ip), vehicle: saline 89 % of control | [22] 92 % of control

CC(C)c1ccc(NC(=S)NCCO)cc1
inactive: [12] 105 % of control | [13] 105 % of control | dose: 400.0 mg/kg/injection, schedule: Q04DX002 (ip), vehicle: Klucel (hydroxypropylcellulose) (HPC) 105 % of control

CC1=C(C)CC2C(=O)c3c(O)ccc(O)c3C(=O)C2C1 (configuration not stated)
inactive: [17] 91 % of control | [18] 95 % of control | [19] 91 % of control

O=C(O)c1c(Cl)c(Cl)cc(Cl)c1Cl
inactive: dose: 75.0 mg/kg/injection, schedule: Q01DX001 (ip), vehicle: saline 93 % of control | dose: 150.0 mg/kg/injection, schedule: Q01DX001 (ip), vehicle: saline 93 % of control | dose: 300.0 mg/kg/injection, schedule: Q01DX001 (ip), vehicle: saline 96 % of control

Cc1c(C(=O)O)[nH]c(=O)[nH]c1=O
inactive: dose: 100.0 mg/kg/injection, schedule: Q01DX Z (ip), vehicle: methylcellulose (MC) 90 % of control | dose: 200.0 mg/kg/injection, schedule: Q01DX Z (ip), vehicle: methylcellulose (MC) 97 % of control

Cc1ncc(CO)c(C2NOCc3nccnc32)c1O (configuration not stated)
inactive: dose: 3.12 mg/kg/injection, schedule: Q01DX009 (ip), vehicle: saline 93 % of control | dose: 6.25 mg/kg/injection, schedule: Q01DX009 (ip), vehicle: saline 92 % of control | dose: 12.5 mg/kg/injection, schedule: Q01DX009 (ip), vehicle: saline 90 % of control | dose: 12.5 mg/kg/injection, schedule: Q04DX003 (ip), vehicle: saline 95 % of control

CC(=O)Nc1ccc(OC(=O)Nc2cccc3ccccc23)cc1
inactive: [1] 89 % of control | [2] 96 % of control

CC(C)CC[n+]1cccc(C(N)=O)c1
inactive: [21] 100 % of control | [22] 110 % of control | dose: 400.0 mg/kg/injection, schedule: Q04DX003 (ip), vehicle: saline 113 % of control

Clc1ccc(/C=N/Nc2nnc(N/N=C/c3ccc(Cl)cc3Cl)c3ccccc23)c(Cl)c1
inactive: dose: 50.0 mg/kg/injection, schedule: Q01DX001 (ip), vehicle: carboxymethylcellulose (CMC) 88 % of control | dose: 100.0 mg/kg/injection, schedule: Q01DX001 (ip), vehicle: carboxymethylcellulose (CMC) 89 % of control | dose: 200.0 mg/kg/injection, schedule: Q01DX001 (ip), vehicle: carboxymethylcellulose (CMC) 93 % of control | dose: 400.0 mg/kg/injection, schedule: Q01DX001 (ip), vehicle: carboxymethylcellulose (CMC) 100 % of control
